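Each compound was tested at five concentrations against cells in 96-well plates for 48 hours. Here, GI50 denotes the concentration required for 50% inhibition of growth.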 Active and inactive are the calls of the source. Cut-off read from the data, not from the text of the source: active = GI50 up to about 1.1 µM and inactive = higher.
How the values were obtained:
Assay in all cases: NCI tumour cell line growth inhibition, 48 h
ACHN = system: ACHN
CCRF-CEM = system: CCRF-CEM
DMS-273 = system: DMS-273
HOP-18 = system: HOP-18
M14 = system: M14
M19-MEL = system: M19-MEL
NCI-H23 = system: NCI-H23
NCI-H522 = system: NCI-H522
OVCAR-4 = system: OVCAR-4
SK-OV-3 = system: SK-OV-3
SNB-78 = system: SNB-78
U-251 = system: U-251
CAKI-1 = system: CAKI-1
XF498 = system: XF498
Hs-578T = system: Hs-578T
MDA-MB-231 = system: MDA-MB-231
MDA-MB-435 = system: MDA-MB-435
NCI/ADR-RES = system: NCI/ADR-RES
PC-3 = system: PC-3
T47D = system: T47D

SMILES | GI50 (ACHN) | GI50 (CCRF-CEM) | GI50 (DMS-273) | GI50 (HOP-18) | GI50 (M14) | GI50 (M19-MEL) | GI50 (NCI-H23) | GI50 (NCI-H522) | GI50 (OVCAR-4) | GI50 (SK-OV-3) | GI50 (SNB-78) | GI50 (U-251) | GI50 (CAKI-1) | GI50 (XF498) | GI50 (Hs-578T) | GI50 (MDA-MB-231) | GI50 (MDA-MB-435) | GI50 (NCI/ADR-RES) | GI50 (PC-3) | GI50 (T47D)
N/N=c1\c2ccccc2c2ccc3c4ccccc4/c(=N\N)c3c12 | > 100 µM (inactive) | > 100 µM (inactive) | > 100 µM (inactive) | > 100 µM (inactive) | > 100 µM (inactive) | > 100 µM (inactive) | > 100 µM (inactive) | > 100 µM (inactive) | > 100 µM (inactive) | > 100 µM (inactive) | > 100 µM (inactive) | > 100 µM (inactive) | – | – | – | – | – | – | – | –
CO/C(=N\N=C\c1ccc(Cl)cc1)c1ccncc1 | > 100 µM (inactive) | > 100 µM (inactive) | > 100 µM (inactive) | – | > 100 µM (inactive) | – | > 100 µM (inactive) | > 100 µM (inactive) | > 100 µM (inactive) | > 100 µM (inactive) | > 100 µM (inactive) | > 100 µM (inactive) | > 100 µM (inactive) | > 100 µM (inactive) | – | – | – | – | – | –
CC[C@@H]1ON(C)[C@H]2CN(C)C(=O)[C@@H]12 | > 100 µM (inactive) | > 100 µM (inactive) | – | – | > 100 µM (inactive) | – | > 100 µM (inactive) | > 100 µM (inactive) | > 100 µM (inactive) | > 100 µM (inactive) | – | > 100 µM (inactive) | > 100 µM (inactive) | – | > 100 µM (inactive) | > 100 µM (inactive) | > 100 µM (inactive) | > 100 µM (inactive) | > 100 µM (inactive) | > 100 µM (inactive)
O=c1n(Cc2ccccc2)c2ccccc2n1CC1CS1 (centres undefined) | > 100 µM (inactive) | > 100 µM (inactive) | > 100 µM (inactive) | – | > 100 µM (inactive) | > 100 µM (inactive) | – | > 100 µM (inactive) | > 100 µM (inactive) | > 100 µM (inactive) | – | – | > 100 µM (inactive) | > 100 µM (inactive) | – | – | – | – | – | –
COc1ccc(C2C(Cl)C(=O)N2NC(=O)c2ccc(NC(C)=O)cc2)cc1OC (centres undefined) | > 100 µM (inactive) | > 100 µM (inactive) | – | > 100 µM (inactive) | – | > 100 µM (inactive) | > 100 µM (inactive) | > 100 µM (inactive) | – | > 100 µM (inactive) | – | > 100 µM (inactive) | – | – | – | – | – | – | – | –
CC(=O)Nc1ccc(C(=O)N2N=C(C)/C(=C/c3cccc(O)c3)C2=O)cc1 | > 100 µM (inactive) | > 100 µM (inactive) | > 100 µM (inactive) | – | > 100 µM (inactive) | > 100 µM (inactive) | > 100 µM (inactive) | > 100 µM (inactive) | > 100 µM (inactive) | – | – | > 100 µM (inactive) | > 100 µM (inactive) | > 100 µM (inactive) | – | – | – | – | – | –
CCc1cccc(CC)c1NC1=CC(=O)C(=O)c2ccccc21 | 13.1 µM (inactive) | > 100 µM (inactive) | 19.2 µM (inactive) | 21.2 µM (inactive) | 13.5 µM (inactive) | 4.97 µM (inactive) | 1.49 µM (inactive) | 14.1 µM (inactive) | 13.7 µM (inactive) | 31.6 µM (inactive) | 26.3 µM (inactive) | 15.3 µM (inactive) | 18.9 µM (inactive) | – | – | – | – | – | – | –
COc1cc2cc(C(=O)N3C[C@@H](CCl)c4c3cc(N)c3ccccc43)[nH]c2c(OC)c1OC | 0.00942 µM (active) | 0.000644 µM (active) | – | – | 0.00104 µM (active) | – | 0.0138 µM (active) | 0.00283 µM (active) | 0.826 µM (active) | 0.00457 µM (active) | – | 0.00163 µM (active) | 0.004 µM (active) | – | 0.00738 µM (active) | 0.00172 µM (active) | 0.000269 µM (active) | 0.00332 µM (active) | 0.00102 µM (active) | 0.00104 µM (active)
Nc1c(-c2ccccc2[N+](=O)[O-])nc2ccccn12 | > 100 µM (inactive) | > 100 µM (inactive) | > 100 µM (inactive) | – | > 100 µM (inactive) | > 100 µM (inactive) | > 100 µM (inactive) | – | – | > 100 µM (inactive) | – | > 100 µM (inactive) | – | – | – | – | – | – | – | –
O=C1NCCCC12CCCNC2=O | > 100 µM (inactive) | > 100 µM (inactive) | > 100 µM (inactive) | – | > 100 µM (inactive) | > 100 µM (inactive) | > 100 µM (inactive) | > 100 µM (inactive) | – | > 100 µM (inactive) | – | > 100 µM (inactive) | – | > 100 µM (inactive) | – | – | – | – | – | –
COc1ccc(NC(=O)C(=O)Cc2ccc([N+](=O)[O-])c([N+](=O)[O-])c2CC(=O)C(=O)Nc2ccc(OC)cc2OC)c(OC)c1 | > 100 µM (inactive) | > 100 µM (inactive) | > 100 µM (inactive) | > 100 µM (inactive) | > 100 µM (inactive) | 95.9 µM (inactive) | > 100 µM (inactive) | 58.6 µM (inactive) | > 100 µM (inactive) | > 100 µM (inactive) | > 100 µM (inactive) | > 100 µM (inactive) | > 100 µM (inactive) | – | – | – | – | – | – | –
CC(C)CCCC(C)[C@H]1CC[C@H]2[C@@H]3CC[C@H]4C[C@@H](CCC=C(c5cc(Cl)c(O)c(C(=O)O)c5)c5cc(Cl)c(O)c(C(=O)O)c5)CC[C@]4(C)[C@H]3CC[C@]12C (some centres undefined) | > 50 µM (inactive) | > 50 µM (inactive) | – | – | > 50 µM (inactive) | – | > 50 µM (inactive) | > 50 µM (inactive) | > 50 µM (inactive) | > 50 µM (inactive) | – | > 50 µM (inactive) | > 50 µM (inactive) | – | > 50 µM (inactive) | > 50 µM (inactive) | > 50 µM (inactive) | > 50 µM (inactive) | > 50 µM (inactive) | > 50 µM (inactive)
Cc1ccc(N2C(=O)N(c3ccc(C)cc3)C3(SC=NN3C)C2=O)cc1 (centres undefined) | 65.6 µM (inactive) | 40.6 µM (inactive) | – | > 100 µM (inactive) | 69.8 µM (inactive) | 72.6 µM (inactive) | 35.2 µM (inactive) | 37.8 µM (inactive) | 95.5 µM (inactive) | > 100 µM (inactive) | > 100 µM (inactive) | > 100 µM (inactive) | 83.2 µM (inactive) | – | – | – | – | – | – | –
O=c1c2cc([N+](=O)[O-])ccc2nc2n1CCCCC2 | > 100 µM (inactive) | 21.5 µM (inactive) | – | – | > 100 µM (inactive) | – | > 100 µM (inactive) | > 100 µM (inactive) | > 100 µM (inactive) | > 100 µM (inactive) | – | > 100 µM (inactive) | 79.6 µM (inactive) | – | 43.3 µM (inactive) | > 100 µM (inactive) | > 100 µM (inactive) | > 100 µM (inactive) | 89.3 µM (inactive) | > 100 µM (inactive)
CC(C)COC(=O)N1N=NC2C3CC(=O)C(O3)C21 (centres undefined) | > 100 µM (inactive) | > 100 µM (inactive) | > 100 µM (inactive) | > 100 µM (inactive) | > 100 µM (inactive) | > 100 µM (inactive) | > 100 µM (inactive) | > 100 µM (inactive) | > 100 µM (inactive) | > 100 µM (inactive) | > 100 µM (inactive) | > 100 µM (inactive) | > 100 µM (inactive) | – | – | – | – | – | – | –
CC(=O)Nc1cc2c3c(c1)CCCN3CCC2 | > 100 µM (inactive) | > 100 µM (inactive) | – | – | > 100 µM (inactive) | – | > 100 µM (inactive) | > 100 µM (inactive) | > 100 µM (inactive) | > 100 µM (inactive) | – | > 100 µM (inactive) | > 100 µM (inactive) | – | > 100 µM (inactive) | > 100 µM (inactive) | > 100 µM (inactive) | > 100 µM (inactive) | > 100 µM (inactive) | 44.6 µM (inactive)
CC1(c2ccc(F)cc2)C(C#N)C(=O)NC(=O)C1C#N (centres undefined) | > 100 µM (inactive) | > 100 µM (inactive) | > 100 µM (inactive) | – | > 100 µM (inactive) | > 100 µM (inactive) | > 100 µM (inactive) | > 100 µM (inactive) | > 100 µM (inactive) | > 100 µM (inactive) | – | – | > 100 µM (inactive) | > 100 µM (inactive) | – | – | – | – | – | –
COC(=O)C1=CC2OC1(C)CCC2=O (centres undefined) | > 100 µM (inactive) | 35.1 µM (inactive) | > 100 µM (inactive) | – | 44.6 µM (inactive) | – | 99.3 µM (inactive) | 48.1 µM (inactive) | > 100 µM (inactive) | > 100 µM (inactive) | – | > 100 µM (inactive) | 63 µM (inactive) | > 100 µM (inactive) | – | – | – | – | – | –
O=C1c2ccccc2-c2cccc3ccc(Cc4ccc5ccccc5c4)c1c23 | > 100 µM (inactive) | > 100 µM (inactive) | 88.3 µM (inactive) | – | > 100 µM (inactive) | > 100 µM (inactive) | > 100 µM (inactive) | 15.6 µM (inactive) | > 100 µM (inactive) | – | > 100 µM (inactive) | 98.2 µM (inactive) | – | 30.3 µM (inactive) | – | – | – | – | – | –
CC/C=C\C/C=C\C/C=C\CCCCCCCC(=O)OCC | > 100 µM (inactive) | > 100 µM (inactive) | – | > 100 µM (inactive) | > 100 µM (inactive) | > 100 µM (inactive) | > 100 µM (inactive) | – | > 100 µM (inactive) | > 100 µM (inactive) | – | > 100 µM (inactive) | > 100 µM (inactive) | 30.9 µM (inactive) | – | – | – | – | – | –
CN1C=C(C(N)=O)Cc2ccsc21 | > 100 µM (inactive) | > 100 µM (inactive) | > 100 µM (inactive) | > 100 µM (inactive) | > 100 µM (inactive) | > 100 µM (inactive) | > 100 µM (inactive) | > 100 µM (inactive) | > 100 µM (inactive) | > 100 µM (inactive) | > 100 µM (inactive) | > 100 µM (inactive) | > 100 µM (inactive) | – | – | – | – | – | – | –

Source: ChEMBL document CHEMBL1201862, “PubChem BioAssay data set” (2004)
